Experimental data: ChEMBL document CHEMBL4825757, “Optimization of 4,6-Disubstituted Pyrido[3,2-d]pyrimidines as Dual MNK/PIM Inhibitors to Inhibit Leukemia Cell Growth” (J Med Chem, 2021)
Calls of active or inactive are those of the source. No cut-off for these calls is given here.

Legend:
MOLM-13 [1] = assay: Induction of apoptosis in human MOLM-13 cells assessed as necrotic cells at 40 uM incubated for 12 hrs by annexin-V and propidium iodide staining based flow cytometry analysis (reference value: 0.06%); format: functional
MOLM-13 [2] = assay: Induction of cell cycle arrest in human MOLM-13 cells assessed as sub-G1 phase at 20 uM incubated for 12 hr by propidium iodide based flow cytometry analysis (Rvb= 4.78%); format: functional
MOLM-13 [3] = assay: Downregulation of cyclin-D1 levels in human MOLM-13 cells at 20 to 40 uM incubated for 12 hrs by western blot analysis; format: functional, cell-based; conditions: dose 20-40 µM
K562 = assay: Antiproliferative activity against human K562 cells assessed as reduction of cell viability incubated for 72 hrs by trypan blue staining based cell counting analysis; format: functional
HL-60 = assay: Antiproliferative activity against human HL-60 cells assessed as reduction of cell viability incubated for 72 hrs by trypan blue staining based cell counting analysis; format: functional
MOLM-13 [4] = assay: Induction of apoptosis in human MOLM-13 cells assessed as late apoptotic cells at 40 uM incubated for 12 hrs by annexin-V and propidium iodide staining based flow cytometry analysis (reference value: 3.03%); format: functional
MOLM-13 [5] = assay: Induction of cell cycle arrest in human MOLM-13 cells assessed as G1 phase at 40 uM incubated for 12 hr by propidium iodide based flow cytometry analysis (Rvb= 51.29%); format: functional
MOLM-13 [6] = assay: Antiproliferative activity against human MOLM13 cells assessed as reduction of cell viability incubated for 72 hrs by trypan blue staining based cell counting analysis; format: functional
MOLM-13 [7] = assay: Induction of apoptosis in human MOLM-13 cells assessed as live cells at 40 uM incubated for 12 hrs by annexin-V and propidium iodide staining based flow cytometry analysis (reference value: 91.49%); format: functional
[8] = target: T1, Serine/threonine-protein kinase PIM (Homo sapiens) (UniProt P11309+Q9P1W9+Q86V86); assay: Inhibition of PIM in human MOLM-13 cells assessed as reduction in phosphorylated 4EBP1 at 20 to 40 uM incubated for 12 hrs by western blot analysis; format: cell-based; conditions: dose 20-40 µM
T1 sequence (P11309 whole entry, looked up): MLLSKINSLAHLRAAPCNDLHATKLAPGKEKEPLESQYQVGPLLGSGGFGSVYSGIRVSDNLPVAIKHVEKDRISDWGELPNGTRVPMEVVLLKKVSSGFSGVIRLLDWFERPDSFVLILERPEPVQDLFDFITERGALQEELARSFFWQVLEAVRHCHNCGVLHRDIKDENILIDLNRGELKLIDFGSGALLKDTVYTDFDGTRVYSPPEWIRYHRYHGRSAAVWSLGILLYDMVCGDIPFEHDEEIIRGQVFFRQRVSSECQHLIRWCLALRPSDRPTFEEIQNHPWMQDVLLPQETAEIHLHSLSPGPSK
T1 sequence (Q9P1W9 whole entry, looked up): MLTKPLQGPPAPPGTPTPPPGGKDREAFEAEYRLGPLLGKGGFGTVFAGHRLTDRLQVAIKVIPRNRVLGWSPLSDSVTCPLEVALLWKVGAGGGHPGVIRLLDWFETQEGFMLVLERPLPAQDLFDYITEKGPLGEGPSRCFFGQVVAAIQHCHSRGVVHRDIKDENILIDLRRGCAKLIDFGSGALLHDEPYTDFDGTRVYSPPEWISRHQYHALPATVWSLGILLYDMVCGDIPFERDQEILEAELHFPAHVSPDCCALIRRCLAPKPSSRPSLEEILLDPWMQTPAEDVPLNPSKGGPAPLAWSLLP

MOLM-13 [9] = assay: Induction of apoptosis in human MOLM-13 cells assessed as early apoptotic cells at 40 uM incubated for 12 hrs by annexin-V and propidium iodide staining based flow cytometry analysis (reference value: 5.40%); format: functional
MOLM-13 [10] = assay: Induction of apoptosis in human MOLM-13 cells assessed as necrotic cells at 20 uM incubated for 12 hrs by annexin-V and propidium iodide staining based flow cytometry analysis (reference value: 0.06%); format: functional
[11] = target: MAP kinase-interacting serine/threonine-protein kinase 1 (Homo sapiens, UniProt Q9BUB5); assay: Inhibition of MKN1 (unknown origin) at 1 uM in presence of ATP by HTRF assay
Sequence of MAP kinase-interacting serine/threonine-protein kinase 1 (Q9BUB5 whole entry, looked up): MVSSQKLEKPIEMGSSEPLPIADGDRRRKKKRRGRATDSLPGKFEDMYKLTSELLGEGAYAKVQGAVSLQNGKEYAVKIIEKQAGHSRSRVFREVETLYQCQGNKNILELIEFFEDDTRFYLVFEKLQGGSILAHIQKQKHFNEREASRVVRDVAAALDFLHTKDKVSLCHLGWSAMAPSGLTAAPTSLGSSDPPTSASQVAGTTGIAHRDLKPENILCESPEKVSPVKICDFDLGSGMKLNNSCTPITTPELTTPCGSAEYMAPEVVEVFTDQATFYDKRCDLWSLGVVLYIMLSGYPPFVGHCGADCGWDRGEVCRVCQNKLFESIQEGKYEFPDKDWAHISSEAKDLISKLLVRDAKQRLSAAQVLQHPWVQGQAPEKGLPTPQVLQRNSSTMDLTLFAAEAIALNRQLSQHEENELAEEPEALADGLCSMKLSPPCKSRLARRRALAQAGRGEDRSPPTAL

MOLM-13 [12] = assay: Induction of apoptosis in human MOLM-13 cells assessed as early apoptotic cells at 20 uM incubated for 12 hrs by annexin-V and propidium iodide staining based flow cytometry analysis (reference value: 5.40%); format: functional
MOLM-13 [13] = assay: Downregulation of mcl-1 levels in human MOLM-13 cells at 20 to 40 uM incubated for 12 hrs by western blot analysis; format: functional, cell-based; conditions: dose 20-40 µM
MOLM-13 [14] = assay: Induction of apoptosis in human MOLM-13 cells assessed as live cells at 20 uM incubated for 12 hrs by annexin-V and propidium iodide staining based flow cytometry analysis (reference value: 91.49%); format: functional
[15] = target: T1, Serine/threonine-protein kinase PIM (Homo sapiens); assay: Inhibition of PIM in human MOLM-13 cells assessed as reduction of BAD phosphorylation at 20 to 40 uM incubated for 12 hrs by western blot analysis; format: cell-based; conditions: dose 20-40 µM
MOLM-13 [16] = assay: Induction of apoptosis in human MOLM-13 cells assessed as late apoptotic cells at 20 uM incubated for 12 hrs by annexin-V and propidium iodide staining based flow cytometry analysis (reference value: 3.03%); format: functional
MOLM-13 [17] = assay: Downregulation of c-myc levels in human MOLM-13 cells at 20 to 40 uM incubated for 12 hrs by western blot analysis; format: functional, cell-based; conditions: dose 20-40 µM
MOLM-13 [18] = assay: Induction of cell cycle arrest in human MOLM-13 cells assessed as G1 phase at 20 uM incubated for 12 hr by propidium iodide based flow cytometry analysis (Rvb= 51.29%); format: functional
MOLM-13 [19] = assay: Induction of cell cycle arrest in human MOLM-13 cells assessed as sub-G1 phase at 40 uM incubated for 12 hr by propidium iodide based flow cytometry analysis (Rvb= 4.78%); format: functional

## Nc1ncnc2[nH]nc(Nc3ccc(F)cc3)c12
MOLM-13 [1]
  Activity: 0.18%
MOLM-13 [2]
  Activity: 8.3%
MOLM-13 [3]
  Activity: Active
K562
  GI50: 28.8 µM
HL-60
  GI50: 7.26 µM
MOLM-13 [4]
  Activity: 2.73%
MOLM-13 [5]
  Activity: 62.49%
MOLM-13 [6]
  GI50: 9.88 µM
MOLM-13 [7]
  Activity: 83.9%
[8]
  inhibition: Active
MOLM-13 [9]
  Activity: 13.19%
MOLM-13 [10]
  Activity: 0.04%
[11]
  inhibition: 78%
MOLM-13 [12]
  Activity: 9.93%
MOLM-13 [13]
  Activity: Active
MOLM-13 [14]
  Activity: 86.89%
[15]
  inhibition: inactive
MOLM-13 [16]
  Activity: 3.05%
MOLM-13 [17]
  Activity: Active
MOLM-13 [18]
  Activity: 65.2%
MOLM-13 [19]
  Activity: 12.28%
